Like-named read-outs stand apart in the source and are kept apart here.
What was measured:
[1] = molecular target: AktK (Homo sapiens, UniProt P31749); test: Luciferase-coupled chemiluminescence kinase assay (ATP consumption); assay type: biochemical; details: read-out: AKT-1 IC50
How it was run: (§1)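 Enzyme at 2.5-5 nM was preincubated 30 min at room temperature with compound in Tris pH 7.5, MgCl2, TX-100, DTT, then reacted with ATP for 3 h at ambient temperature. Remaining ATP was quantified by luciferase-luciferin chemiluminescence, with consumption kept at 25-60%; […].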

[2] = molecular target: p70S6K (Homo sapiens, UniProt P23443); test: as above; assay type: biochemical
Sequence of p70S6K (P23443 whole entry): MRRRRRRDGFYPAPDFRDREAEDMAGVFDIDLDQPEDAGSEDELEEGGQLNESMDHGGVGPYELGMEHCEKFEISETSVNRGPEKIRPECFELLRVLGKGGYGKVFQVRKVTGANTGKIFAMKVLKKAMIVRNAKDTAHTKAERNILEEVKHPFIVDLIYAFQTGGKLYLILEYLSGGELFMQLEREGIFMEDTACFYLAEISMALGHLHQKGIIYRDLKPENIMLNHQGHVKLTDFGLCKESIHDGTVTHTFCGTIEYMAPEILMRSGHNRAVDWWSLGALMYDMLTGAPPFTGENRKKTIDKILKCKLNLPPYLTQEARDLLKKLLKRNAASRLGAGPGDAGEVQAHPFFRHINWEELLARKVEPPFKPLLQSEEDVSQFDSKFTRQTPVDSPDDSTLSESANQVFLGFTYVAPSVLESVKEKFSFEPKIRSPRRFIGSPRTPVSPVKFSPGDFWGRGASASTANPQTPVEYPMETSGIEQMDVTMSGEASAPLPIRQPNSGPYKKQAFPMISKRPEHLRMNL
How it was run: as §1

Sequence of AktK (P31749 whole entry): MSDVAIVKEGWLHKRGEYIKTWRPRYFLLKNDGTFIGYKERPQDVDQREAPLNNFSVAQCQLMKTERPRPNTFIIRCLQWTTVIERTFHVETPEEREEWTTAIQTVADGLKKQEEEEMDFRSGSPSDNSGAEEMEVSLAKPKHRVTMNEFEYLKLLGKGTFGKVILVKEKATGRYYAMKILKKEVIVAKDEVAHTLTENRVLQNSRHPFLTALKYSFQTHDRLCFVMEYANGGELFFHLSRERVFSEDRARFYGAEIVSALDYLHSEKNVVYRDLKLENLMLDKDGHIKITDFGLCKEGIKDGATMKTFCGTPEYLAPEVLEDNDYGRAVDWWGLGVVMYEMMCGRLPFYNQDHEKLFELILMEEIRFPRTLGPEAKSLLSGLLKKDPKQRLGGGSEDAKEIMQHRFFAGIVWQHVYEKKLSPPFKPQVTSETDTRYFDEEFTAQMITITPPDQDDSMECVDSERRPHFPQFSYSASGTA

| Compound | IC50 [1] | IC50 [2] | IC50 ([1]; Table 1, class symbols per key) | IC50 ([2]; Table 1, class symbols per key) |
| --- | --- | --- | --- | --- |
| COc1cccc(N2CCN(c3ncnc4[nH]ccc34)CC2)c1 [Entry 303, 4-{4-[3-(methyloxy)phenyl]piperazin-1-yl}-7H-pyrrolo[2,3-d]pyrimidine] | ≥ 10000 nM | 100 to 1000 nM | – | – |
| Cc1ccc(Cl)cc1N1CCN(c2ncnc3[nH]nc(C#CCN4CCCC4)c23)CC1 [Entry 397, 4-[4-(5-chloro-2-methylphenyl)piperazin-1-yl]-3-(3-pyrrolidin-1-ylprop-1-yn-1-yl)-1H-pyrazolo[3,4-d]pyrimidine] | 1000 to 10000 nM | 100 to 1000 nM | – | – |
| C#Cc1cc(NCCN2CCCC2)c(C)c(N2CCN(c3ncnc4[nH]nc(Br)c34)CC2)c1 [Entry 237, 3-[4-(3-bromo-1H-pyrazolo[3,4-d]pyrimidin-4-yl)piperazin-1-yl]-5-ethynyl-2-methyl-N-(2-pyrrolidin-1-ylethyl)aniline] | – | – | < 100 nM | < 100 nM |
| CCc1n[nH]c2ncnc(N3CCN(c4cc(Cl)cc(C(=O)OC)c4OC)CC3)c12 [Entry 368, methyl 5-chloro-3-[4-(3-ethyl-1H-pyrazolo[3,4-d]pyrimidin-4-yl)piperazin-1-yl]-2-(methyloxy)benzoate] | 1000 to 10000 nM | 100 to 1000 nM | – | – |
| CCc1n[nH]c2ncnc(N3CCN(c4cc(Cl)cc(N(C)CCN(C)C)c4C)CC3)c12 [Entry 82, N-{5-chloro-3-[4-(3-ethyl-1H-pyrazolo[3,4-d]pyrimidin-4-yl)piperazin-1-yl]-2-methylphenyl}-N,N′,N′-trimethylethane-1,2-diamine] | – | – | 1000 to 10000 nM | < 100 nM |
| COc1cccc(N2CCN(c3ncnc4[nH]nc(Br)c34)CC2)c1 [Entry 65, 3-bromo-4-{4-[3-(methyloxy)phenyl]piperazin-1-yl}-1H-pyrazolo[3,4-d]pyrimidine] | – | – | 1000 to 10000 nM | < 100 nM |
| Cc1ccc(-c2cccc(F)c2OCCN2CCCC2)cc1N1CCN(c2ncnc3[nH]nc(Br)c23)CC1 [Entry 282, 3-bromo-4-(4-{3′-fluoro-4-methyl-2′-[(2-pyrrolidin-1-ylethyl)oxy]biphenyl-3-yl}piperazin-1-yl)-1H-pyrazolo[3,4-d]pyrimidine] | – | – | < 100 nM | < 100 nM |
| Cc1c(NCCN2CCCC2)cc(OC(C)C)cc1N1CCN(c2ncnc3[nH]nc(Br)c23)CC1 [Entry 220, 3-[4-(3-bromo-1H-pyrazolo[3,4-d]pyrimidin-4-yl)piperazin-1-yl]-2-methyl-5-[(1-methylethyl)oxy]-N-(2-pyrrolidin-1-ylethyl)aniline] | – | – | < 100 nM | < 100 nM |
| CCc1n[nH]c2ncnc(N3CCN(c4cc(Cl)ccc4C)CC3)c12 [Entry 323, 4-[4-(5-chloro-2-methylphenyl)piperazin-1-yl]-3-ethyl-1H-pyrazolo[3,4-d]pyrimidine] | 1000 to 10000 nM | < 100 nM | – | – |
| 2-[4-(3-bromo-1H-pyrazolo[3,4-d]pyrimidin-4-yl)piperazin-1-yl]-N,N-diethylpyrimidin-4-amine [Entry 140] | – | – | 1000 to 10000 nM | 100 to 1000 nM |
| Cc1c(CCCN2CCN(C)CC2)cc(Cl)cc1N1CCN(c2ncnc3[nH]nc(Br)c23)CC1 [Entry 19, 3-bromo-4-(4-{5-chloro-2-methyl-3-[3-(4-methylpiperazin-1-yl)propyl]phenyl}piperazin-1-yl)-1H-pyrazolo[3,4-d]pyrimidine] | – | – | < 100 nM | < 100 nM |
| 4-[4-(5-chloro-2-methylphenyl)piperazin-1-yl]-1H-pyrazolo[3,4-d]pyrimidin-6-amine [Entry 156] | – | – | ≥ 10000 nM | 1000 to 10000 nM |
| Cc1c(NCCN2CCCC2)cc(-c2ccccc2)cc1N1CCN(c2ncnc3[nH]nc(Br)c23)CC1 [Entry 231, 5-[4-(3-bromo-1H-pyrazolo[3,4-d]pyrimidin-4-yl)piperazin-1-yl]-4-methyl-N-(2-pyrrolidin-1-ylethyl)biphenyl-3-amine] | – | – | < 100 nM | < 100 nM |
| Fc1ccc(N2CCN(c3ncnc4[nH]ccc34)CC2)cc1 [Entry 312, 4-[4-(4-fluorophenyl)piperazin-1-yl]-7H-pyrrolo[2,3-d]pyrimidine] | ≥ 10000 nM | 100 to 1000 nM | – | – |
| CCN1CCN(CCOc2cc(Cl)cc(N3CCN(c4ncnc5[nH]nc(Br)c45)CC3)c2C)CC1 [Entry 74, 3-bromo-4-[4-(5-chloro-3-{[2-(4-ethylpiperazin-1-yl)ethyl]oxy}-2-methylphenyl)piperazin-1-yl]-1H-pyrazolo[3,4-d]pyrimidine] | – | – | < 100 nM | < 100 nM |
| Cc1c(NCCN2CCCC2)cc(OCC(C)C)cc1N1CCN(c2ncnc3[nH]nc(Br)c23)CC1 [Entry 184, 3-[4-(3-bromo-1H-pyrazolo[3,4-d]pyrimidin-4-yl)piperazin-1-yl]-2-methyl-5-[(2-methyl-propyl)oxy]-N-(2-pyrrolidin-1-ylethyl)aniline] | – | – | < 100 nM | < 100 nM |
| Clc1ccc(N2CCN(c3ncnc4[nH]ccc34)CC2)cc1 [Entry 310, 4-[4-(4-chlorophenyl)piperazin-1-yl]-7H-pyrrolo[2,3-d]pyrimidine] | ≥ 10000 nM | 1000 to 10000 nM | – | – |
| COc1ccc(N2CCN(c3ncnc4[nH]nc(Br)c34)CC2)c(OC)c1 [Entry 106, 4-{4-[2,4-bis(methyloxy)phenyl]piperazin-1-yl}-3-bromo-1H-pyrazolo[3,4-d]pyrimidine] | – | – | ≥ 10000 nM | 100 to 1000 nM |
| Cc1c(OCCN2CCCC2)cc(Cl)cc1N1CCN(c2ncnc3[nH]nc(C(F)(F)F)c23)CC1 [Entry 39, 4-(4-{5-chloro-2-methyl-3-[(2-pyrrolidin-1-ylethyl)oxy]phenyl}piperazin-1-yl)-3-(trifluoromethyl)-1H-pyrazolo[3,4-d]pyrimidine] | – | – | 100 to 1000 nM | < 100 nM |
| Cc1ccc(Cl)cc1N1CCN(c2ncnc3[nH]nc(-c4ccc(C#N)cc4)c23)CC1 [Entry 366, 4-{4-[4-(5-chloro-2-methylphenyl)piperazin-1-yl]-1H-pyrazolo[3,4-d]pyrimidin-3-yl}benzonitrile] | 1000 to 10000 nM | 1000 to 10000 nM | – | – |
| Cc1c(NCCN2CCCC2)cc(C(=O)NC(C)C)cc1N1CCN(c2ncnc3[nH]nc(Br)c23)CC1 [Entry 209, 3-[4-(3-bromo-1H-pyrazolo[3,4-d]pyrimidin-4-yl)piperazin-1-yl]-4-methyl-N-(1-methylethyl)-5-[(2-pyrrolidin-1-ylethyl)amino]benzamide] | – | – | < 100 nM | < 100 nM |

Continued, values first:

| IC50 [1] | IC50 [2] | IC50 ([1]; Table 1, class symbols per key) | IC50 ([2]; Table 1, class symbols per key) | Compound |
| --- | --- | --- | --- | --- |
| 1000 to 10000 nM | 100 to 1000 nM | – | – | Cc1ccc(Cl)cc1N1CCN(c2ncnc3[nH]nc(Cc4ccccc4)c23)CC1 [Entry 354, 4-[4-(5-chloro-2-methylphenyl)piperazin-1-yl]-3-(phenylmethyl)-1H-pyrazolo[3,4-d]pyrimidine] |
| – | – | < 100 nM | < 100 nM | CCCC(=O)c1cc(NCCN2CCCC2)c(C)c(N2CCN(c3ncnc4[nH]nc(Br)c34)CC2)c1 [Entry 248, 1-{3-[4-(3-bromo-1H-pyrazolo[3,4-d]pyrimidin-4-yl)piperazin-1-yl]-4-methyl-5-[(2-pyrrolidin-1-ylethyl)amino]phenyl}butan-1-one] |
| – | – | 100 to 1000 nM | < 100 nM | Cc1c(NCCN2CCCC2)cc(C(=O)N(C)C)cc1N1CCN(c2ncnc3[nH]nc(Br)c23)CC1 [Entry 198, 3-[4-(3-bromo-1H-pyrazolo[3,4-d]pyrimidin-4-yl)piperazin-1-yl]-N,N,4-trimethyl-5-[(2-pyrrolidin-1-ylethyl)amino]benzamide] |
| 1000 to 10000 nM | 100 to 1000 nM | – | – | CCc1n[nH]c2ncnc(N3CCN(c4cc(Cl)c(OCCCN(C)C)cc4C)CC3)c12 [Entry 388, 3-({2-chloro-4-[4-(3-ethyl-1H-pyrazolo[3,4-d]pyrimidin-4-yl)piperazin-1-yl]-5-methylphenyl}oxy)-N,N-dimethylpropan-1-amine] |
| 100 to 1000 nM | < 100 nM | – | – | Cc1ccc(Cl)cc1N1CCN(c2ncnc3[nH]nc(Br)c23)CC1 [Entry 329, 3-bromo-4-[4-(5-chloro-2-methylphenyl)piperazin-1-yl]-1H-pyrazolo[3,4-d]pyrimidine] |
| ≥ 10000 nM | 100 to 1000 nM | – | – | Cc1ccccc1N1CCN(c2ncnc3[nH]ccc23)CC1 [Entry 301, 4-[4-(2-methylphenyl)piperazin-1-yl]-7H-pyrrolo[2,3-d]pyrimidine] |
| ≥ 10000 nM | 100 to 1000 nM | – | – | COc1ccccc1N1CCN(c2ncnc3[nH]ccc23)CC1 [Entry 302, 4-{4-[2-(methyloxy)phenyl]piperazin-1-yl}-7H-pyrrolo[2,3-d]pyrimidine] |
| – | – | < 100 nM | < 100 nM | Cc1c(NCCN2CCCC2)cc(C(=O)Nc2ccc(Cl)cc2)cc1N1CCN(c2ncnc3[nH]nc(Br)c23)CC1 [Entry 203, 3-[4-(3-bromo-1H-pyrazolo[3,4-d]pyrimidin-4-yl)piperazin-1-yl]-N-(4-chlorophenyl)-4-methyl-5-[(2-pyrrolidin-1-ylethyl)amino]benzamide] |
| 1000 to 10000 nM | 100 to 1000 nM | – | – | CC(=O)Nc1ccc(-c2n[nH]c3ncnc(N4CCN(c5cc(Cl)ccc5C)CC4)c23)cc1 [Entry 342, N-(4-{4-[4-(5-chloro-2-methylphenyl)piperazin-1-yl]-1H-pyrazolo[3,4-d]pyrimidin-3-yl}phenyl)acetamide] |
| – | – | < 100 nM | < 100 nM | Cc1c(NCCN2CCCC2)cc(OCC(C)(C)F)cc1N1CCN(c2ncnc3[nH]nc(Br)c23)CC1 [Entry 216, 3-[4-(3-bromo-1H-pyrazolo[3,4-d]pyrimidin-4-yl)piperazin-1-yl]-5-[(2-fluoro-2-methylpro-pyl)oxy]-2-methyl-N-(2-pyrrolidin-1-ylethyl)aniline] |
| 1000 to 10000 nM | 100 to 1000 nM | – | – | Clc1cccc(N2CCN(c3ncnc4[nH]ccc34)CC2)c1 [Entry 296, 4-[4-(3-chlorophenyl)piperazin-1-yl]-7H-pyrrolo[2,3-d]pyrimidine] |
| 1000 to 10000 nM | 100 to 1000 nM | – | – | COc1ccccc1-c1n[nH]c2ncnc(N3CCN(c4cc(Cl)ccc4C)CC3)c12 [Entry 363, 4-[4-(5-chloro-2-methylphenyl)piperazin-1-yl]-3-[2-(methyloxy)phenyl]-1H-pyrazolo[3,4-d]pyrimidine] |
